# According to BindingDB's records for PubMed 2176210 (Ciba-Geigy, 1990):
# pIC50: −log10 of the molar value.
# Key:
# Assay in all cases: Kinase Assay
# [1] = target: Epidermal growth factor receptor (Homo sapiens, UniProt P00533)
# Procedure: Determination of EGF receptor kinase activity was performed as described using A431 membranes as the enzyme source and agiotensin II as substrate.
# [2] = target: Protein kinase C alpha type (Homo sapiens, UniProt P17252)
# [3] = target: Tyrosine-protein kinase ABL1 (Homo sapiens, UniProt P00519)
# [4] = target: cAMP-dependent protein kinase catalytic subunit alpha (Homo sapiens, UniProt P17612)
# [5] = target: Tyrosine-protein kinase CSK (Homo sapiens, UniProt P41240)
# Chain of Epidermal growth factor receptor (P00533 whole entry): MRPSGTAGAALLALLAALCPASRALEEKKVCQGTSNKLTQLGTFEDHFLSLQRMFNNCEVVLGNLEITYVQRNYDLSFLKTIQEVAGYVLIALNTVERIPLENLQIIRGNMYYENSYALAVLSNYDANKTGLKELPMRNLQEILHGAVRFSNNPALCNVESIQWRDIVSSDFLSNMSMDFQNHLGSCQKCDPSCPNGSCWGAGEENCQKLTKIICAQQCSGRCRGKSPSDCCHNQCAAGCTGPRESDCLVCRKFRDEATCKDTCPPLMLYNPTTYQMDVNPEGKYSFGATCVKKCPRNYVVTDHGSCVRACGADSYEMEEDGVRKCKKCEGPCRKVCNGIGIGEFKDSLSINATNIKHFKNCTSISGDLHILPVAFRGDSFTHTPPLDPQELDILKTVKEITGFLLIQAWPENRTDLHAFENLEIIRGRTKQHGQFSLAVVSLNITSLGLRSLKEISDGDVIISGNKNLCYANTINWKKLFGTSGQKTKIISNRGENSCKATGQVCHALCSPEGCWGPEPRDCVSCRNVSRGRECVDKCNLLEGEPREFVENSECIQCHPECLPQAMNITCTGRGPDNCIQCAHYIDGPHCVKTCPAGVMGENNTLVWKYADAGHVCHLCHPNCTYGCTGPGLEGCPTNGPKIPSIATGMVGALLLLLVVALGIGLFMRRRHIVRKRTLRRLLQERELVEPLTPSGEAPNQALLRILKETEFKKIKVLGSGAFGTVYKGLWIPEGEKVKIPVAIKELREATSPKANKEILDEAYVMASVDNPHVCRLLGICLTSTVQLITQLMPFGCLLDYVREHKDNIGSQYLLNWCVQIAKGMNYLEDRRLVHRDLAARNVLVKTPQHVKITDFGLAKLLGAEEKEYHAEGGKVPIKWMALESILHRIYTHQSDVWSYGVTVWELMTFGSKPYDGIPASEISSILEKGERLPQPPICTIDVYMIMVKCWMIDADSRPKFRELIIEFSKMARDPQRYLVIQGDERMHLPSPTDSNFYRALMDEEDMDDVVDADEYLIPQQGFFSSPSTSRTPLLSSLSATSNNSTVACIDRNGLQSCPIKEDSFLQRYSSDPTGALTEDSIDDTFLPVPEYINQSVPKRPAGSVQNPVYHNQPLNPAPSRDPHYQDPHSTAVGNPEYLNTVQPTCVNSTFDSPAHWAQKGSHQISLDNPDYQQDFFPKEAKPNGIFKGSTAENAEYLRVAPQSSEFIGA
# Chain of Tyrosine-protein kinase ABL1 (P00519 whole entry): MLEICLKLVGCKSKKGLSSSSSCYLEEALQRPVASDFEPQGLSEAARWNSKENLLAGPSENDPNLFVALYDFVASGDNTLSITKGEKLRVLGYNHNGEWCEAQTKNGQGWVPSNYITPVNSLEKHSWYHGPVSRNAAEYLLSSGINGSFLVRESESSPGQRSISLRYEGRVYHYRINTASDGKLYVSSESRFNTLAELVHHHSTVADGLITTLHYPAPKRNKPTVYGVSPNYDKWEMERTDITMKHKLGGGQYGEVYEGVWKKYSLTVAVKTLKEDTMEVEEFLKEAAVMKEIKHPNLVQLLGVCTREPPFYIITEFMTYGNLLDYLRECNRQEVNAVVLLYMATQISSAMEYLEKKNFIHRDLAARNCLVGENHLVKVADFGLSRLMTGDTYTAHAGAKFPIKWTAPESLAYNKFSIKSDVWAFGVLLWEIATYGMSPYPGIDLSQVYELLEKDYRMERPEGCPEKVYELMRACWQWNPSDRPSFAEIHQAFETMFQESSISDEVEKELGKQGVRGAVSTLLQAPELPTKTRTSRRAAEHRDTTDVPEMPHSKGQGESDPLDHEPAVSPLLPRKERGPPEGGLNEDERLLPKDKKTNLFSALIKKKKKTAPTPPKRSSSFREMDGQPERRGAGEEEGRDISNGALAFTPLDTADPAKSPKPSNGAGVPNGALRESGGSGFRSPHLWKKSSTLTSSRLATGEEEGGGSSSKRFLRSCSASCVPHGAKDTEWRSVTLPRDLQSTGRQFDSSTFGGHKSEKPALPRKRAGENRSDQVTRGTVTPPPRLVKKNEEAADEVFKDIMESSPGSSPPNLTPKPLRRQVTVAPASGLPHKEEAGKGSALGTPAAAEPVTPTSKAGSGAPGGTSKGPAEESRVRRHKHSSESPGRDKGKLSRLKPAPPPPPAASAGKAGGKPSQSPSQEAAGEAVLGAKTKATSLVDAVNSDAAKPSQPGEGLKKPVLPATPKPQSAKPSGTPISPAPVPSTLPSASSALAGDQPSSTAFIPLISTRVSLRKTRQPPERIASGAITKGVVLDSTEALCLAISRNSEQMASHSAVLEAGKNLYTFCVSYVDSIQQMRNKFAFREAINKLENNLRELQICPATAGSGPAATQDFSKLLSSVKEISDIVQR
Compound,pIC50 [1],pIC50 [2],pIC50 [3],pIC50 [4],pIC50 [5]
O=c1c(-c2ccc(O)cc2)coc2cc(O)cc(O)c12 [Prunetol],,4.82,4.41,< 4.00,< 4.30
"C=CCN1C(=O)C(=C)SC1=NN=c1scc(O)n1C [Thiazolidine-dione, 1]",5.22,< 3.30,< 4.00,< 3.30,5.40
"C=C(C)Cn1c(O)csc1=NN=c1scc(O)n1C [Thiazolidine-dione, 4]",< 4.30,< 4.00,< 4.00,,< 4.00
"C=C(C)Cn1c(O)c(CN(C)C)sc1=NN=c1scc(O)n1C [Thiazolidine-dione, 3]",5.70,3.46,< 4.00,< 3.30,5.15
"C=C(C)CN1C(=O)C(=C)SC1=NN=c1scc(O)n1C [Thiazolidine-dione, 2]",6.00,< 4.00,4.00,< 3.30,5.52

# The remaining lines, values ahead:
pIC50 [1],pIC50 [2],pIC50 [3],pIC50 [4],pIC50 [5],Compound
4.00,< 4.00,< 4.00,< 4.00,< 4.00,"C=C(C)Cn1c(O)c(OS(=O)O)sc1=NN=c1scc(O)n1C [Thiazolidine-dione, 10]"
< 4.30,< 4.00,< 4.00,,< 4.00,"C=CCn1c(O)c(C)sc1=NN=c1scc(O)n1C [Thiazolidine-dione, 5]"
< 4.30,< 4.00,< 4.00,,,"C=C(C)Cn1c(O)c(CO)sc1=NN=c1scc(O)n1C [Thiazolidine-dione, 8]"
< 4.00,< 4.00,< 4.00,,< 4.00,"C=C(C)Cn1c(O)c(O)sc1=NN=c1scc(O)n1C [Thiazolidine-dione, 7]"
< 4.00,< 4.00,< 4.00,,< 4.00,"C=CCn1c(O)c(CC(=O)O)sc1=NN=c1scc(O)n1C [Thiazolidine-dione, 9]"
< 4.30,< 4.00,< 4.00,,< 4.00,"C=C(C)Cn1c(O)c(C)sc1=NN=c1scc(O)n1C [Thiazolidine-dione, 6]"
